Each compound was assayed against recombinant HCV NS5B (HCV RNA-dependent RNA polymerase) (Hepatitis C virus genotype 1b, UniProt P26663) (assay: biochemical). Conditions: HCV polymerase activity, list of compounds of Example 27; read-out: IC50 (polymerase activity).
Sequence of recombinant HCV NS5B (HCV RNA-dependent RNA polymerase) (P26663 2420-3010 limits assumed): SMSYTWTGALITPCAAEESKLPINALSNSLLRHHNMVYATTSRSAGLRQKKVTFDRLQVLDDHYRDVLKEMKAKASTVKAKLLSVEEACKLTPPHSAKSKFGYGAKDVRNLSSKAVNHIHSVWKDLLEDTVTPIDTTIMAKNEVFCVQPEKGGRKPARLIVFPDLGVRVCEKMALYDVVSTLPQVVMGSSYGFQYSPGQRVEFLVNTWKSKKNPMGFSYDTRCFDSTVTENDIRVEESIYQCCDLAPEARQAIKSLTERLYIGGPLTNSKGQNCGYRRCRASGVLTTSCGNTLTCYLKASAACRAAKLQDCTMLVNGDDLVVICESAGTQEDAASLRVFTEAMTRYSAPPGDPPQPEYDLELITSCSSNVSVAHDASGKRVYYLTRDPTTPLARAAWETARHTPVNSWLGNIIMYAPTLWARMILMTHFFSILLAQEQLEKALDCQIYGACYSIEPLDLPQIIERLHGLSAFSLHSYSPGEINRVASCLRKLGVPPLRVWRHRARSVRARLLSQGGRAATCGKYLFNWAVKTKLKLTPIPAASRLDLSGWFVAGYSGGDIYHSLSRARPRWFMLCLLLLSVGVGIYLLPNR

Cc1ccccc1S(=O)(=O)Nc1cc(Br)sc1C(=O)O [Compound 552, 5-BROMO-3-(TOLUENE-2- SULFONYLAMINO)-THIOPHENE-2- CARBOXYLIC ACID] and CCC(=O)N(Cc1cccc(Cl)c1)c1cc(-c2ccccc2)sc1C(=O)O [Compound 477, 3-[(3-CHLORO-BENZYL)-PROPIONYL- AMINO]-5-PHENYL-THIOPHENE-2- CARBOXYLIC ACID] fall in the same range of IC50: 5 to 20 µM for the first, 5 to 20 µM for the second.

CCCC(=O)N(Cc1ccc(F)cc1F)c1cc(-c2ccccc2)sc1C(=O)O [Compound 496, 3-[BUTYRYL-(2,4-DIFLUORO-BENZYL)- AMINO]-5-PHENYL-THIOPHENE-2- CARBOXYLIC ACID] and CCCC(=O)N(Cc1cccc(Cl)c1)c1cc(-c2ccccc2)sc1C(=O)O [Compound 482, 3-[BUTYRYL-(3-CHLORO-BENZYL)- AMINO]-5-PHENYL-THIOPHENE-2- CARBOXYLIC ACID] cannot be ordered by IC50: less than 5 µM for the first, less than 5 µM for the second.

O=C(O)c1sc(-c2ccccc2)cc1N(CC1CCN(C(=O)OCc2ccccc2)CC1)C(=O)c1ccc(Cl)cc1Cl [Compound 508, 4-{[(2-CARBOXY-5-PHENYL-THIOPHEN-3- YL)-(2,4-DICHLORO-BENZOYL)-AMINO]- METHYL}-PIPERIDINE-1-CARBOXYLIC ACID BENZYL ESTER] and CO[C@H]1CCCCC1N(C(=O)c1ccc(Cl)cc1Cl)c1cc(-c2ccccc2)sc1C(=O)O (stereo partly shown) [Compound 534, 3-[(2-DICHLORO-BENZOYL)-(2- METHOXY-CYCLOHEXYL)-AMINO]-5- PHENYL-THIOPHENE-2- CARBOXYLIC ACID] cannot be ordered by IC50: less than 5 µM for the first, less than 5 µM for the second.

Cc1ccc(C(=O)N(c2cc(-c3cccc(C(F)(F)F)c3)sc2C(=O)O)C(C)C)c(OCc2ccccc2)c1 [Compound 406, 3-[(2-BENZLOXY-4-METHYL-BENZOYL)- ISOPROPYL-AMINO]-5-(3- TRIFLUOROMETHYL-PHENYL)- THIOPHENE-2-CARBOXYLIC ACID] and CCC(=O)N(Cc1ccc(Cl)cc1)c1cc(-c2ccccc2)sc1C(=O)O [Compound 456, 3-[(4-CHLORO-BENZYL)-PROPIONYL- AMINO]-5-PHENYL-THIOPHENE-2- CARBOXYLIC ACID] cannot be ordered by IC50: less than 5 µM for the first, less than 5 µM for the second.

First: COc1cccc(CN(C(=O)C2CCC2)c2cc(-c3ccccc3)sc2C(=O)O)c1 [Compound 473, 3-[CYCLOBUTANECARBONYL-(3- METHOXY-BENZYL)-AMINO]-5-PHENYL- THIOPHENE-2-CARBOXYLIC ACID]
Second: CC(C)N(c1cc(-c2ccc(-c3ccc(Cl)cc3)cc2)sc1C(=O)O)C(=O)[C@H]1CC[C@H](C)CC1 [Compound 571, 5-(4′-CHLORO-BIPHENYL-4-YL)-3- [ISOPROPYL-(4-METHYL- CYCLOHEXANECARBONYL)-AMINO]- THIOPHENE-2-CARBOXYLIC ACID]
The IC50 of the first is higher: 5 to 20 µM for the first, less than 5 µM for the second.

With CC(C)N(C(=O)c1ccc(Cl)cc1Cl)c1cc(-c2nccs2)sc1C(=O)O [Compound 449, 3-[(2,4-DICHLORO-BENZOYL)- ISOPROPYL-AMINO]-5-THIAZOL-2-YL- THIOPHENE-2-CARBOXYLIC ACID] the IC50 was less than 5 µM.

Same assay, conditions: related polymerase activity (Example 27 list); read-out: IC50

Compared with COc1ccc(C(=O)N(C)c2cc(-c3ccccc3)sc2C(=O)O)cc1OC [Compound 276, 3-[(3,4-DIMETHOXY-BENZOYL)-METHYL-AMINO]-5-PHENYL-THIOPHENE-2-CARBOXYLIC ACID], Cc1ccc(C(=O)N(C)c2cc(-c3ccccc3)sc2C(=O)O)c(C)c1 [Compound 131, 3-[(2,4-DIMETHYL-BENZOYL)-METHYL-AMINO]-5-PHENYL-THIOPHENE-2 CARBOXYLIC ACID] is lower in IC50: greater than 20 µM for the first, less than 5 µM for the second.

Cc1cc(S(=O)(=O)N(Cc2cccc(-c3cc4ccccc4o3)c2)c2cc(-c3ccccc3)sc2C(=O)O)c(C)cc1Cl [Compound 2, 3-[(3-BENZOFURAN-2-YL-BENZYL)-(4-CHLORO-2,5-DIMETHYL-BENZENESULFONYL)-AMINO]-5-PHENYL-THIOPHENE-2-CARBOXYLIC ACID] and Cc1cc(S(=O)(=O)N(C)c2cc(-c3ccccc3)sc2C(=O)O)c(C)cc1Cl [Compound 5, 3-[(4-CHLORO-2,5-DIMETHYL-BENZENESULFONYL)-METHYL-AMINO]-5-PHENYL-THIOPHENE-2-CARBOXYLIC ACID] fall in the same range of IC50: 5 to 20 µM for the first, 5 to 20 µM for the second.

First: CN(C(=O)Cc1ccc(F)cc1)c1cc(-c2ccccc2)sc1C(=O)O [Compound 173, 3-{[2-(4-FLUORO-PHENYL)-ACETYL]-METHYL-AMINO}-5-PHENYL-THIOPHENE-2-CARBOXYLIC ACID]
Second: CC(C)N(C(=O)c1ccc(F)cc1)c1cc(-c2ccccc2)sc1C(=O)O [Compound 226, 3-[(4-FLUORO-BENZOYL)-ISOPROPYL-AMINO]-5-PHENYL-THIOPHENE-2-CARBOXYLIC ACID]
The IC50 of the first is lower: less than 5 µM for the first, 5 to 20 µM for the second. The first is the more potent here.

First: O=C(O)c1sc(-c2ccccc2)cc1NS(=O)(=O)c1ccc(Cl)cc1Cl [Compound 7, 3-(2,4-DICHLORO-BENZENESULFONYLAMINO)-5-PHENYL-THIOPHENE-2-CARBOXYLIC ACID]
Second: O=C(O)c1sc(-c2ccccc2)cc1NS(=O)(=O)c1ccccc1CCl [Compound 189, 3-(2-CHLOROMETHYL-BENZENESULFONYLAMINO)-5-PHENYL-THIOPHENE-2-CARBOXYLIC ACID]
The IC50 of the first is lower: less than 5 µM for the first, 5 to 20 µM for the second. The first is the more potent here.

First: Cc1ccccc1S(=O)(=O)Nc1cc(-c2ccncc2)sc1C(=O)O [Compound 86, 5-PYRIDIN-4-YL-3-(TOLUENE-2-SULFONYLAMINO)-THIOPHENE-2-CARBOXYLIC ACID]
Second: CC(=O)Nc1cccc(-c2cc(NS(=O)(=O)c3ccccc3C)c(C(=O)O)s2)c1 [Compound 90, 5-(3-ACETYLAMINO-PHENYL)-3-(TOLUENE-2-SULFONYLAMINO)-THIOPHENE-2-CARBOXYLIC ACID]
The IC50 of the first is lower: less than 5 µM for the first, 5 to 20 µM for the second.

First: O=C(O)c1sc(-c2ccccc2)cc1NS(=O)(=O)c1ccccc1OC(F)(F)F [Compound 31, 5-PHENYL-3-(2-TRIFLUOROMETHOXY-BENZENESULFONYLAMINO)-THIOPHENE-2-CARBOXYLIC ACID]
Second: Cc1ccccc1S(=O)(=O)Nc1cc(-c2cc3ccccc3o2)sc1C(=O)O [Compound 127, 5-BENZOFURAN-2-YL-3-(TOLUENE-2-SULFONYLAMINO)-THIOPHENE-2-CARBOXYLIC ACID]
The IC50 of the first is higher: greater than 20 µM for the first, less than 5 µM for the second. The second is the more potent here.

First: O=C(O)c1sc(-c2ccccc2)cc1NC(=O)N1CCN(c2ccc([N+](=O)[O-])cc2)CC1 [Compound 114, 3-{[4-(4-NITRO-PHENYL)-PIPERAZINE-1-CARBONYL]-AMINO}-5-PHENYL-THIOPHENE-2-CARBOXYLIC ACID]
Second: O=C(Nc1cc(-c2ccccc2)sc1C(=O)O)Oc1ccc(Cl)cc1 [Compound 33, 3-(4-CHLORO-PHENOXYCARBONYLAMINO)-5-PHENYL-THIOPHENE-2-CARBOXYLIC ACID]
The IC50 of the first is lower: less than 5 µM for the first, 5 to 20 µM for the second. The first is the more potent here.

First: C=Cc1cc(C)ccc1C(=O)N(c1cc(-c2ccccc2)sc1C(=O)O)C(C)C [Compound 395, 3-[ISOPROPYL-(4-METHYL-2-VINYL- BENZOYL)-AMINO]-5-PHENYL- THIOPHENE-2-CARBOXYLIC ACID]
Second: Cc1cc(Cl)ccc1C(=O)N(c1cc(-c2ccccc2)sc1C(=O)O)C(C)C [Compound 234, 3-[(4-CHLORO-2-METHYL-BENZOYL)-ISOPROPYL-AMINO]-5-PHENYL-THIOPHENE-2-CARBOXYLIC ACID]
The IC50 of the first is higher: 5 to 20 µM for the first, less than 5 µM for the second.

CC(=O)c1ccc(-c2cc(NS(=O)(=O)c3ccc(C)cc3C)c(C(=O)O)s2)cc1 [Compound 236, 5-(4-ACETYL-PHENYL)-3-(2,4-DIMETHYL-BENZENESULFONYLAMINO)-THIOPHENE-2-CARBOXYLIC ACID] and Cc1ccc(S(=O)(=O)Nc2cc(-c3ccc(S(C)(=O)=O)cc3)sc2C(=O)O)c(C)c1 [Compound 321, 3-(2,4-DIMETHYL- BENZENESULFONYLAMINO)-5-(4- METHANESULFONYL-PHENYL)- THIOPHENE-2-CARBOXYLIC ACID] cannot be ordered by IC50: less than 5 µM for the first, less than 5 µM for the second.

Compared with CC(C)N(C(=O)c1ccc(C#N)cc1)c1cc(-c2ccccc2)sc1C(=O)O [Compound 311, 3-[(4-CYANO-BENZOYL)-ISOPROPYL- AMINO]-5-PHENYL-THIOPHENE-2- CARBOXYLIC ACID], CCCCc1ccc(C(=O)N(C)c2cc(-c3ccccc3)sc2C(=O)O)cc1 [Compound 188, 3-[(4-BUTYL-BENZOYL)-METHYL-AMINO]-5-PHENYL-THIOPHENE-2-CARBOXYLIC ACID] is higher in IC50: 5 to 20 µM for the first, greater than 20 µM for the second.

CC(C)=CCN(C(=O)c1ccc(Cl)cc1Cl)c1cc(-c2ccccc2)sc1C(=O)O [Compound 244, 3-[(2,4-DICHLORO-BENZOYL)-(3-METHYL-BUT-2-ENYL)-AMINO]-5-PHENYL-THIOPHENE-2-CARBOXYLIC ACID] and O=C(O)c1sc(-c2ccccc2)cc1N(Cc1ccccc1)C(=O)c1ccc(Cl)cc1Cl [Compound 233, 3-[BENZYL-(2,4-DICHLORO-BENZOYL)-AMINO]-5-PHENYL-THIOPHENE-2-CARBOXYLIC ACID] cannot be ordered by IC50: less than 5 µM for the first, less than 5 µM for the second.

COc1ccc(-c2cc(N(C)C(=O)c3ccc(C)cc3)c(C(=O)O)s2)cc1 [Compound 198, 5-(4-METHOXY-PHENYL)-3-[METHYL-(4-METHYL-BENZOYL)-AMINO]-THIOPHENE-2-CARBOXYLIC ACID] and Cc1ccc(C(=O)N(C)c2cc(-c3ccc(Cl)cc3)sc2C(=O)O)cc1 [Compound 192, 5-(4-CHLORO-PHENYL)-3-[METHYL-(4-METHYL-BENZOYL)-AMINO]-THIOPHENE-2-CARBOXYLIC ACID] fall in the same range of IC50: 5 to 20 µM for the first, 5 to 20 µM for the second.

Compared with CC1CCCCC1C(=O)N(c1cc(-c2ccccc2)sc1C(=O)O)C(C)C (stereo not shown) [Compound 379, 3-[ISOPROPYL-(2-METHYL- CYCLOHEXANECARBONYL)-AMINO]-5- PHENYL-THIOPHENE-2-CARBOXYLIC ACID], COc1cc(C)c(S(=O)(=O)Nc2cc(-c3ccccc3)sc2C(=O)O)c(C)c1C [Compound 22, 3-(4-METHOXY-2,3,6-TRIMETHYL-BENZENESULFONYLAMINO)-5-PHENYL-THIOPHENE-2-CARBOXYLIC ACID] is lower in IC50: 5 to 20 µM for the first, less than 5 µM for the second.

First: CC(=O)c1cc(-c2cc(NS(=O)(=O)c3ccc(C)cc3C)c(C(=O)O)s2)cs1 [Compound 367, 5′-ACETYL-4-(2,4-DIMETHYL- BENZENESULFONYLAMINO)- [2,3′]BITHIOPHENYL-5-CARBOXYLIC ACID]
Second: Cc1ccc(S(=O)(=O)Nc2cc(C(C)(C)C)sc2C(=O)O)c(C)c1 [Compound 315, 5-#TERT!-BUTYL-3-(2,4-DIMETHYL- BENZENESULFONYLAMINO)- THIOPHENE-2-CARBOXYLIC ACID]
The IC50 of the first is lower: less than 5 µM for the first, 5 to 20 µM for the second. The first is the more potent here.

Cc1ccccc1S(=O)(=O)Nc1cc(-c2ccc(Cl)s2)sc1C(=O)O [Compound 57, 5′-CHLORO-4-(TOLUENE-2-SULFONYLAMINO)-[2,2′]BITHIOPHENYL-5-CARBOXYLIC ACID] showed an IC50 of less than 5 µM.
